Reference: patent publication EP0547191B1, “PARTICULATE VECTOR HAVING SELECTIVE TROPISM, METHOD OF PREPARATION AND PHARMACEUTICAL COMPOSITION” (BIOVECTOR THERAPEUTICS SA, priority 1991, dated 1992)

Test system: fibroblastes humains normaux
Experiment: Flow cytofluorimetry: cellular incorporation of doxorubicin measured by emitted fluorescence
Format: cell-based
Conditions: fibroblasts after 48h in lipoprotein-depleted medium
Procedure: Après 48h de culture en milieu délipoprotéiné, les fibroblastes humains normaux sont incubés avec de la doxorubicine sous forme libre ou encapsulée dans des BVSM ou des BVSM-apoB. Après incubation, de 0, à 2h, ils sont lavés, mis en contact avec de la trypsine 0,05% pendant 1min à37°C, repris en suspension dans du milieu de culture et fixés par du paraformaldéhyde. Les suspensions cellulaires obtenues sont analysées à l'aide d'un cytofluorimètre de flux (Becton-Dickinson Fac-scan) et l'incorporation cellulaire de la doxorubicine est mesurée par l'intensité de fluorescence émise. Les témoins fibroblastes avec BVSM et BVSM-apoB sans doxorubicine ne présentent aucune fluoresence.
Les résultats obtenus sont présentés dans le tableau suivant : […]

COc1cccc2c1C(=O)c1c(O)c3c(c(O)c1C2=O)C[C@@](O)(C(=O)CO)C[C@@H]3O[C@H]1C[C@H](N)[C@H](O)[C@H](C)O1 [Doxorubicine libre, doxorubicine]
Intensité de fluorescence émise (Temps d'incubation 0 min): 5 | Intensité de fluorescence émise (Temps d'incubation 10 min): 22 | Intensité de fluorescence émise (Temps d'incubation 30 min): 25 | Intensité de fluorescence émise (Temps d'incubation 60 min): 31 | Intensité de fluorescence émise (Temps d'incubation 120 min): 42
